Results reported in PubChem BioAssay AID256 (DTP/NCI, 2004).
Toxic doses and inconclusive results are not listed.

Tested on: CD2F1 mice, L1210 leukemia ip, survival T/C
Experiment: NCI In Vivo Anticancer Drug Screen. Data for tumor model L1210 Leukemia (intraperitoneal) in CD2F1 (CDF1) mice
Settings: endpoint: mean survival time, higher = longer survival
Method in brief: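 Each value reflects a quotient of treated over vehicle control outcomes in mice with a transplanted tumor.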

[1] = dose: 100.0 mg/kg/injection, schedule: Q04DX003 (ip), vehicle: saline with Tween-80
[2] = dose: 200.0 mg/kg/injection, schedule: Q04DX003 (ip), vehicle: saline with Tween-80
[3] = dose: 400.0 mg/kg/injection, schedule: Q04DX003 (ip), vehicle: saline with Tween-80
[4] = dose: 100.0 mg/kg/injection, schedule: Q01DX009 (ip), vehicle: saline with Tween-80
[5] = dose: 200.0 mg/kg/injection, schedule: Q01DX009 (ip), vehicle: saline with Tween-80
[6] = dose: 400.0 mg/kg/injection, schedule: Q01DX009 (ip), vehicle: saline with Tween-80
[7] = dose: 12.5 mg/kg/injection, schedule: Q01DX009 (ip), vehicle: water
[8] = dose: 25.0 mg/kg/injection, schedule: Q01DX009 (ip), vehicle: water
[9] = dose: 50.0 mg/kg/injection, schedule: Q01DX009 (ip), vehicle: water
[10] = dose: 100.0 mg/kg/injection, schedule: Q01DX001 (ip), vehicle: saline with Tween-80
[11] = dose: 100.0 mg/kg/injection, schedule: Q04DX003 (ip), vehicle: saline
[12] = dose: 200.0 mg/kg/injection, schedule: Q01DX001 (ip), vehicle: saline with Tween-80
[13] = dose: 200.0 mg/kg/injection, schedule: Q04DX003 (ip), vehicle: saline
[14] = dose: 400.0 mg/kg/injection, schedule: Q01DX001 (ip), vehicle: saline with Tween-80
[15] = dose: 400.0 mg/kg/injection, schedule: Q04DX003 (ip), vehicle: saline
[16] = dose: 50.0 mg/kg/injection, schedule: Q04DX003 (ip), vehicle: saline

## CC12CCC(C(=O)C1=O)C2(C)C (centres undefined)
[1]
  T/C: 102 % of control
[2]
  T/C: 94 % of control
[3]
  T/C: 102 % of control

## CSC(=S)N(C)/N=C/c1ccccc1O
[4]
  T/C: 97 % of control
[1]
  T/C: 102 % of control
[5]
  T/C: 93 % of control
[2]
  T/C: 92 % of control
[6]
  T/C: 92 % of control
[3]
  T/C: 100 % of control

## S=P(S)(c1ccccc1)c1ccccc1
dose: 80.5 mg/kg/injection, schedule: Q01DX009 (ip), vehicle: saline with Tween-80
  T/C: 104 % of control
dose: 161.0 mg/kg/injection, schedule: Q01DX009 (ip), vehicle: saline with Tween-80
  T/C: 98 % of control
dose: 322.0 mg/kg/injection, schedule: Q01DX009 (ip), vehicle: saline with Tween-80
  T/C: 100 % of control

## COC(=O)C(NC(=O)CCNC(=O)OCc1ccccc1)C(C)C (centres undefined)
[4]
  T/C: 95 % of control
[5]
  T/C: 101 % of control

## CC1(C)CC(O)(Cc2ccccc2)C(O)c2ccccc21 (centres undefined)
[1]
  T/C: 93 % of control
[2]
  T/C: 97 % of control
[3]
  T/C: 93 % of control

## CCN(CC)S(=O)(=O)c1ccccc1
dose: 50.0 mg/kg/injection, schedule: Q01DX009 (ip), vehicle: Klucel (hydroxypropylcellulose) (HPC)
  T/C: 93 % of control
dose: 100.0 mg/kg/injection, schedule: Q01DX009 (ip), vehicle: Klucel (hydroxypropylcellulose) (HPC)
  T/C: 104 % of control
dose: 200.0 mg/kg/injection, schedule: Q01DX009 (ip), vehicle: Klucel (hydroxypropylcellulose) (HPC)
  T/C: 96 % of control

## COc1cc2cccc(N)c2cc1OC
[7]
  T/C: 95 % of control
[8]
  T/C: 95 % of control
[9]
  T/C: 95 % of control

## CCCCCCC(O)/C=C/c1ccc(Cl)cc1 (centres undefined)
[1]
  T/C: 110 % of control
[2]
  T/C: 102 % of control
[3]
  T/C: 111 % of control

## O=[N+]([O-])c1ccc(OCCCBr)cc1
[1]
  T/C: 91 % of control
[2]
  T/C: 91 % of control
[3]
  T/C: 91 % of control

## CN(C)CCOCCOc1ccc(C(C)(C)CC(C)(C)C)cc1
dose: 1.5 mg/kg/injection, schedule: Q01DX009 (ip), vehicle: saline with Tween-80
  T/C: 105 % of control
dose: 3.0 mg/kg/injection, schedule: Q01DX009 (ip), vehicle: saline with Tween-80
  T/C: 97 % of control
dose: 6.0 mg/kg/injection, schedule: Q01DX009 (ip), vehicle: saline with Tween-80
  T/C: 100 % of control

## CCOC(=O)c1csc(-c2csc(CCNC(=O)c3ccccc3)n2)n1
[10]
  T/C: 97 % of control
[4]
  T/C: 102 % of control
[11]
  T/C: 96 % of control
[12]
  T/C: 98 % of control
[5]
  T/C: 100 % of control
[13]
  T/C: 101 % of control
[14]
  T/C: 101 % of control
[6]
  T/C: 96 % of control
[15]
  T/C: 95 % of control

## CCN(CC)CCCC(C)N (centres undefined)
[16]
  T/C: 101 % of control

## O=C1OC(=O)C2C3c4ccccc4C(c4c3c(-c3ccccc3)c3ccccc3c4-c3ccccc3)C12 (centres undefined)
[10]
  T/C: 87 % of control
[12]
  T/C: 87 % of control
[14]
  T/C: 93 % of control

## Cc1cc(CC(O)(C(F)(F)Cl)C(F)(F)Cl)cc(C)n1
[1]
  T/C: 95 % of control
[2]
  T/C: 92 % of control
[3]
  T/C: 90 % of control

## N#C/C(=N\Nc1ccc(S(=O)(=O)O)cc1)C(N)=O
[4]
  T/C: 95 % of control
[5]
  T/C: 91 % of control
[6]
  T/C: 94 % of control

## Nc1ccc2[nH]c(-c3ccc(S(=O)(=O)F)cc3)cc(=O)c2c1
[4]
  T/C: 102 % of control
[5]
  T/C: 106 % of control
[6]
  T/C: 113 % of control

## CCC(C)NCCO (centres undefined)
dose: 75.0 mg/kg/injection, schedule: Q01DX001 (ip), vehicle: saline
  T/C: 96 % of control
dose: 150.0 mg/kg/injection, schedule: Q01DX001 (ip), vehicle: saline
  T/C: 104 % of control
dose: 300.0 mg/kg/injection, schedule: Q01DX001 (ip), vehicle: saline
  T/C: 104 % of control

## CCOC(=O)Nc1cc(NCCCCc2ccccc2)c(N)c(N)n1
[10]
  T/C: 102 % of control
[12]
  T/C: 109 % of control

## COc1ccc2nc(C(C)O)[nH]c2c1 (centres undefined)
[4]
  T/C: 89 % of control
[1]
  T/C: 103 % of control
[5]
  T/C: 93 % of control
[2]
  T/C: 101 % of control
[6]
  T/C: 89 % of control
[3]
  T/C: 96 % of control

## COc1cccc2c1CCC1C2CC=C2CC3(CCC21C)OCCO3 (centres undefined)
dose: 100.0 mg/kg/injection, schedule: Q04DX003 (sc), vehicle: steriod suspending solution
  T/C: 97 % of control
dose: 200.0 mg/kg/injection, schedule: Q04DX003 (sc), vehicle: steriod suspending solution
  T/C: 92 % of control
dose: 400.0 mg/kg/injection, schedule: Q04DX003 (sc), vehicle: steriod suspending solution
  T/C: 94 % of control

## O=C(O)CC(=O)O.[NH-]C1CCCCC1C1CCCCC1[NH-].[Pt+2] (centres undefined)
dose: 3.12 mg/kg/injection, schedule: Q04DX003 (ip), vehicle: distilled water + Tween-80
  T/C: 106 % of control
dose: 6.25 mg/kg/injection, schedule: Q04DX003 (ip), vehicle: distilled water + Tween-80
  T/C: 112 % of control
dose: 12.5 mg/kg/injection, schedule: Q04DX003 (ip), vehicle: distilled water + Tween-80
  T/C: 119 % of control
dose: 50.0 mg/kg/injection, schedule: Q04DX003 (ip), vehicle: distilled water + Tween-80
  T/C: 165 % of control
dose: 100.0 mg/kg/injection, schedule: Q04DX003 (ip), vehicle: distilled water + Tween-80
  T/C: 201 % of control
dose: 200.0 mg/kg/injection, schedule: Q04DX003 (ip), vehicle: distilled water + Tween-80
  T/C: 194 % of control

## CCCCNC(=O)NCCc1ccc(OC)c(OC)c1
[4]
  T/C: 87 % of control
[5]
  T/C: 89 % of control

## C1=CC2CC3(OCCO3)C2C1 (centres undefined)
[4]
  T/C: 98 % of control
[5]
  T/C: 98 % of control

## Cc1ccc(P(=O)(O)O)c([N+](=O)[O-])c1
[16]
  T/C: 105 % of control
[11]
  T/C: 95 % of control
[13]
  T/C: 105 % of control

## COC(=O)C(NC(=O)C(CSC(c1ccccc1)(c1ccccc1)c1ccccc1)NC(c1ccccc1)(c1ccccc1)c1ccccc1)C(C)C (centres undefined)
dose: 50.0 mg/kg/injection, schedule: Q01DX009 (ip), vehicle: saline
  T/C: 98 % of control
dose: 100.0 mg/kg/injection, schedule: Q01DX009 (ip), vehicle: saline
  T/C: 92 % of control
dose: 200.0 mg/kg/injection, schedule: Q01DX009 (ip), vehicle: saline
  T/C: 97 % of control
dose: 400.0 mg/kg/injection, schedule: Q01DX009 (ip), vehicle: saline
  T/C: 89 % of control

## COC(=O)C(C)CC(C)(C=O)OC (centres undefined)
[4]
  T/C: 102 % of control
[5]
  T/C: 96 % of control
[6]
  T/C: 96 % of control

## Cc1cc(N(CCCOS(C)(=O)=O)CCCOS(C)(=O)=O)ccc1C=Nc1ccc2ccccc2c1
dose: 25.0 mg/kg/injection, schedule: Q01DX009 (ip), vehicle: saline with Tween-80
  T/C: 93 % of control
dose: 50.0 mg/kg/injection, schedule: Q01DX009 (ip), vehicle: saline with Tween-80
  T/C: 93 % of control
[4]
  T/C: 88 % of control

## Nc1nc2c(ncn2CCCc2ccccc2)c(=O)[nH]1
[10]
  T/C: 94 % of control
[12]
  T/C: 94 % of control

## CCC(c1ccc(OC)cc1)C(CC)c1ccc(O)c(CN2CCN(C)CC2)c1 (centres undefined)
[4]
  T/C: 102 % of control

## Cc1cc2c(cc1C)[n+]([O-])c1c(=O)[nH]c(=O)[nH]c1[n+]2[O-]
dose: 25.0 mg/kg/injection, schedule: Q04DX002 (ip), vehicle: saline with Tween-80
  T/C: 98 % of control
dose: 50.0 mg/kg/injection, schedule: Q04DX002 (ip), vehicle: saline with Tween-80
  T/C: 102 % of control

## Nc1ccc2ccccc2c1S(=O)(=O)O
[4]
  T/C: 102 % of control
[5]
  T/C: 93 % of control
[6]
  T/C: 90 % of control

## CN(C)P1(N)=NP(N)(N(C)C)=NP(N)(N(C)C)=N1 (centres undefined)
[11]
  T/C: 100 % of control
[13]
  T/C: 94 % of control
[15]
  T/C: 96 % of control

## Nc1nc(N)c2nc(-c3ccc(Cl)c(Cl)c3)c(N)nc2n1
[7]
  T/C: 97 % of control
[8]
  T/C: 97 % of control
[9]
  T/C: 108 % of control
dose: 100.0 mg/kg/injection, schedule: Q01DX009 (ip), vehicle: water
  T/C: 93 % of control

## O=[N+]([O-])c1ccccc1NCCNCCNc1ccccc1[N+](=O)[O-]
[1]
  T/C: 113 % of control
[2]
  T/C: 98 % of control
[3]
  T/C: 98 % of control

## CCCCCCCCCCCCCCC[N+]1(C)CCSCC1
dose: 25.0 mg/kg/injection, schedule: Q01DX001 (ip), vehicle: saline with Tween-80
  T/C: 100 % of control
dose: 50.0 mg/kg/injection, schedule: Q01DX001 (ip), vehicle: saline with Tween-80
  T/C: 95 % of control

## CC/C=N/NC(=O)c1ccc[n+](C)c1
dose: 100.0 mg/kg/injection, schedule: Q04DX002 (ip), vehicle: saline with Tween-80
  T/C: 100 % of control
dose: 200.0 mg/kg/injection, schedule: Q04DX002 (ip), vehicle: saline with Tween-80
  T/C: 92 % of control
dose: 400.0 mg/kg/injection, schedule: Q04DX002 (ip), vehicle: saline with Tween-80
  T/C: 96 % of control
